Assay results as given in ChEMBL document CHEMBL1144174, “Design and synthesis of 6-fluoro-2-naphthyl derivatives as novel CCR3 antagonists with reduced CYP2D6 inhibition” (Bioorg Med Chem, 2008).
Active and inactive are the calls of the source. The calls are words filed in the database; no cut-off is given here.

Columns and labels:
Cytochrome P450 2D6 = Cytochrome P450 2D6 (Homo sapiens, UniProt P10635); assay: Inhibition of human CYP2D6 by fluorescence technique in presence of NADP; type: ADME
Chain of Cytochrome P450 2D6 (P10635 whole entry): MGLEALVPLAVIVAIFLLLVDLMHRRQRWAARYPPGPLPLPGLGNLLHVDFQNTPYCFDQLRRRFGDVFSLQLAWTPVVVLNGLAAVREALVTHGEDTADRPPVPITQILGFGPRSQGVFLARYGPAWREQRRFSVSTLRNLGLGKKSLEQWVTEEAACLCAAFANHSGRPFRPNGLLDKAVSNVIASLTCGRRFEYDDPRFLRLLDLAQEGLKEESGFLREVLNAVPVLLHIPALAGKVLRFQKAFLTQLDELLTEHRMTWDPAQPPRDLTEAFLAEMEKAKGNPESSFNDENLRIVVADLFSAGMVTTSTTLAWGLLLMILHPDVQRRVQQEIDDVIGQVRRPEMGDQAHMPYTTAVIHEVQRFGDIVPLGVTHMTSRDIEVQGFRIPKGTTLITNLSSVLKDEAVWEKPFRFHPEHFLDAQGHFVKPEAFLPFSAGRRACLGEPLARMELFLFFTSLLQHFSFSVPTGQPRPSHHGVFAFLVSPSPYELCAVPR

[1] = target: T1, C-C chemokine receptor type 3 (Homo sapiens, UniProt P51677); assay: Antagonist activity at CCR3 receptor expressed in mouse B300-19 cells assessed as inhibition of eotaxin-induced calcium influx by spectrophotometry; type: functional, cell-based
T1 sequence (P51677 whole entry): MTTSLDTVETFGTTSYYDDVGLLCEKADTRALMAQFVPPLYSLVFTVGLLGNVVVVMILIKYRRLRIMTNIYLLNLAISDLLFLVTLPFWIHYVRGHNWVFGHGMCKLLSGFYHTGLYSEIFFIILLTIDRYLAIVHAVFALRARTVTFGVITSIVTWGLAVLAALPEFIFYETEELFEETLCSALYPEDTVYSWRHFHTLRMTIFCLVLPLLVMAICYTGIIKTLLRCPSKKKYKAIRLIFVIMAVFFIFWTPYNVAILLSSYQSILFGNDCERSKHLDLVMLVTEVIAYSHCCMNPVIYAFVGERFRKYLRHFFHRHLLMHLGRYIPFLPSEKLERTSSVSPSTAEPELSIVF

Cytochrome P450 1A2 = target: T2, Cytochrome P450 1A2 (Homo sapiens, UniProt P05177); assay: Inhibition of human CYP1A2; type: ADME
T2 sequence (P05177 whole entry): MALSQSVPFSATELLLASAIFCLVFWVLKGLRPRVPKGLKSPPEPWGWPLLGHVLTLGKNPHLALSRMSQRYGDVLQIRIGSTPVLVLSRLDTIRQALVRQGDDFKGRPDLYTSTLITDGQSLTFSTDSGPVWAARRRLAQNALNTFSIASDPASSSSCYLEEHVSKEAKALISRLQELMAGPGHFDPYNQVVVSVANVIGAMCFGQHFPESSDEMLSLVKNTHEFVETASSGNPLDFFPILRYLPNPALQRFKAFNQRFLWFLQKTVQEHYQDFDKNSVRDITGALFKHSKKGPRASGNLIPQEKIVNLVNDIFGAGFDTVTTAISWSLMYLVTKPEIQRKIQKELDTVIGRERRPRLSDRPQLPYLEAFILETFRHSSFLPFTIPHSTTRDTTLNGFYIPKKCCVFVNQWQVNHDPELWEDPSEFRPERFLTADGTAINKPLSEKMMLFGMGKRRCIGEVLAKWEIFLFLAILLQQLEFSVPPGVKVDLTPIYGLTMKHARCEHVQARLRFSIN

Cytochrome P450 2C9 = Cytochrome P450 2C9 (Homo sapiens, UniProt P11712); assay: Inhibition of human CYP2C9; type: ADME
Chain of Cytochrome P450 2C9 (P11712 whole entry): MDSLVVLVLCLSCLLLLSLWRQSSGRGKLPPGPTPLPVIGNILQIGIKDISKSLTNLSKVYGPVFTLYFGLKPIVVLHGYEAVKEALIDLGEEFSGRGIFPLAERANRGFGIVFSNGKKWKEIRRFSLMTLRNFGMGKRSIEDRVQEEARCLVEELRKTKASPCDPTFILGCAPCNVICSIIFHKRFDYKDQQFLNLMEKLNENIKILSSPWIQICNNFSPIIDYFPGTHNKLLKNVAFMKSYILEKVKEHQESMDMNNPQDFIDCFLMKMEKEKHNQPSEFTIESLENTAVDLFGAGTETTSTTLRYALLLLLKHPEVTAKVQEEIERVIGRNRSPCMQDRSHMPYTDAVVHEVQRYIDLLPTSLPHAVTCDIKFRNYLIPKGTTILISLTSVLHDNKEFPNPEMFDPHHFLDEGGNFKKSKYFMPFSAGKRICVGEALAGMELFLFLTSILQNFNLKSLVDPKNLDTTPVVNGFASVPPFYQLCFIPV

Cytochrome P450 2C19 = Cytochrome P450 2C19 (Homo sapiens, UniProt P33261); assay: Inhibition of human CYP2C19; type: ADME
Chain of Cytochrome P450 2C19 (P33261 whole entry): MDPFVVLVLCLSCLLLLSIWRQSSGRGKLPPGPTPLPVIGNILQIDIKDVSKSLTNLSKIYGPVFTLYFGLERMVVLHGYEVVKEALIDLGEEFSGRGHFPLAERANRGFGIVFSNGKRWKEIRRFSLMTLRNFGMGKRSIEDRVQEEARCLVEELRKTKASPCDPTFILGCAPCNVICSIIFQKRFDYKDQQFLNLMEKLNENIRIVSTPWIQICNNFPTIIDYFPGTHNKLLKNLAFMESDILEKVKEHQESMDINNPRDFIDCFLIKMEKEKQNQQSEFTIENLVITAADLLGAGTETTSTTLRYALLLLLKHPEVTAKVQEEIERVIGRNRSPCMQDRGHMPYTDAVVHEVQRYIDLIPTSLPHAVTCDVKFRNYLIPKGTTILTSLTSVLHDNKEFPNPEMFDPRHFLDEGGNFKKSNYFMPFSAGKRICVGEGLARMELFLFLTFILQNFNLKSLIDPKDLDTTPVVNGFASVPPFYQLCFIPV

Cytochrome P450 3A4 = Cytochrome P450 3A4 (Homo sapiens, UniProt P08684); assay: Inhibition of human CYP3A4; type: ADME
Chain of Cytochrome P450 3A4 (P08684 whole entry): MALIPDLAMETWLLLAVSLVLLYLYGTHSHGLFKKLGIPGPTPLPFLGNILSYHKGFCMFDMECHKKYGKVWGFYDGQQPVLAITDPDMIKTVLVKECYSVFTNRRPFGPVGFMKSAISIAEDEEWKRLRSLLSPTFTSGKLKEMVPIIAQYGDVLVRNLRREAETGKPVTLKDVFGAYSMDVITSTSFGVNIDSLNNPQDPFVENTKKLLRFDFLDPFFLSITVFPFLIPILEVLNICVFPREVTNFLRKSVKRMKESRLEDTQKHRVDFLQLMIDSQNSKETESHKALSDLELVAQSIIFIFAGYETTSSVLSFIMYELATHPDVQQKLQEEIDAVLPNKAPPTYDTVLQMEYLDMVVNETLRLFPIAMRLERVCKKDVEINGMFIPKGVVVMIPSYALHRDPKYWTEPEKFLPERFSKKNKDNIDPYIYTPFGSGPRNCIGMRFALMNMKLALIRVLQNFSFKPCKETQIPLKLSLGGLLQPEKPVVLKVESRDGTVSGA

[2] = target: T3, C-C chemokine receptor type 1 (Homo sapiens) (UniProt P32246); assay: Inhibition of CCR1 receptor at 10 uM
T3 sequence (whole entry): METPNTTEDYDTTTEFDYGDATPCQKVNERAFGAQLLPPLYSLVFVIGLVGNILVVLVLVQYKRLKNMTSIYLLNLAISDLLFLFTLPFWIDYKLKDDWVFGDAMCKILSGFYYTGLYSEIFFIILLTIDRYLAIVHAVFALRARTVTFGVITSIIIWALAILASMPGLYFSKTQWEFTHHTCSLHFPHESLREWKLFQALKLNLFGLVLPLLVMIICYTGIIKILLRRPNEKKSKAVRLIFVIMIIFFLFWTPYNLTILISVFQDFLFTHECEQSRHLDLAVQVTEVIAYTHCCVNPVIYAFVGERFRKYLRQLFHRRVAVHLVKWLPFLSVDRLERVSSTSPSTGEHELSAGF

[3] = target: C-C chemokine receptor type 2 (Homo sapiens) (UniProt P41597); assay: Inhibition of CCR2 receptor at 10 uM
Chain of C-C chemokine receptor type 2 (Homo sapiens) (P41597 whole entry, looked up): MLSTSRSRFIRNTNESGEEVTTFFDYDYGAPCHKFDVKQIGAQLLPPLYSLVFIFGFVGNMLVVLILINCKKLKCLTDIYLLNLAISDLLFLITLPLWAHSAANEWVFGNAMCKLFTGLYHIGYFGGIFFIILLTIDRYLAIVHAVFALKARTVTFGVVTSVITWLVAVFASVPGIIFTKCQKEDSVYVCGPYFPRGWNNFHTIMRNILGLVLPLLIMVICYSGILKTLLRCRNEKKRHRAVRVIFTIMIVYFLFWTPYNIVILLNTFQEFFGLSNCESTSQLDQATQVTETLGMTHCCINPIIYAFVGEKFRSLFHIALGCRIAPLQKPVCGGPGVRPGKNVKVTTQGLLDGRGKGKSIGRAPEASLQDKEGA

[4] = target: C-C chemokine receptor type 5 (Homo sapiens) (UniProt P51681); assay: Inhibition of CCR5 receptor at 10 uM
Chain of C-C chemokine receptor type 5 (Homo sapiens) (P51681 whole entry, looked up): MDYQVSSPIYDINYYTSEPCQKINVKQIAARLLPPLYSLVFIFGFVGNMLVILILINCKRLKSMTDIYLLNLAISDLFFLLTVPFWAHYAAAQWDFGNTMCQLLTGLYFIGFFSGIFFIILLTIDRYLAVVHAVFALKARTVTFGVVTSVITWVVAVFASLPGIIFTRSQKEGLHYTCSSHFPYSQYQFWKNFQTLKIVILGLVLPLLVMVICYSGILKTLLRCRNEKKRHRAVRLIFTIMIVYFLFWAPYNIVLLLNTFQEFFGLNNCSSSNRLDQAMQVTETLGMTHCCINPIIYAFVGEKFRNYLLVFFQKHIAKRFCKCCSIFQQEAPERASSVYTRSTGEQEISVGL

Structure (SMILES)	IC50 (Cytochrome P450 2D6) [nM]	IC50 [1] [nM]	other results
O=C(NC1C[C@H]2CC[C@H](C1)N2Cc1ccc2cc(F)ccc2c1)c1ccccc1-c1ccccc1 (stereo partly specified)			IC50 (Cytochrome P450 1A2): > 20000 nM; IC50 (Cytochrome P450 2C9): > 20000 nM; IC50 (Cytochrome P450 2C19): > 20000 nM; IC50 (Cytochrome P450 3A4): > 20000 nM
O=C(N[C@@H]1C[C@H]2CC[C@@H](C1)N2Cc1ccc2cc(F)ccc2c1)c1cnccc1C(=O)N1CCCCC1	26700	85	
O=C(N[C@@H]1C[C@H]2CC[C@@H](C1)N2Cc1ccc2cc(F)ccc2c1)c1cc[n+]([O-])cc1C(=O)N1CCCCC1			Activity [2]: inactive; Activity [3]: inactive; Activity [4]: inactive
O=C(N[C@@H]1C[C@H]2CC[C@@H](C1)N2Cc1ccc2cc(F)ccc2c1)c1ccccc1C(=O)N1CCCC1	7300	225	
CN1CCN(C(=O)c2ccccc2C(=O)N[C@@H]2C[C@H]3CC[C@@H](C2)N3Cc2ccc3cc(F)ccc3c2)CC1	7100	482	
O=C(N[C@@H]1C[C@H]2CC[C@@H](C1)N2Cc1ccc2cc(F)ccc2c1)c1ccccc1-c1nccs1	2400	89	
O=C(N[C@@H]1C[C@H]2CC[C@@H](C1)N2Cc1ccc2cc(F)ccc2c1)c1ncccc1C(=O)N1CCCCC1	23500	131	
CN(C(=O)c1ccccc1C(=O)N[C@@H]1C[C@H]2CC[C@@H](C1)N2Cc1ccc2cc(F)ccc2c1)C1CCCCC1	2900	44	
O=C(N[C@@H]1C[C@H]2CC[C@@H](C1)N2Cc1ccc2cc(F)ccc2c1)c1ccccc1OC1CCCCC1	580	118	
O=C(N[C@@H]1C[C@H]2CC[C@@H](C1)N2Cc1ccc2cc(F)ccc2c1)c1ccccc1C(=O)N1CCCCC1	6500	23	
O=C(N[C@@H]1C[C@H]2CC[C@@H](C1)N2Cc1ccc2cc(F)ccc2c1)c1ccccc1C(=O)N1CCCCCC1	3000	12	
O=C(N[C@@H]1C[C@H]2CC[C@@H](C1)N2Cc1ccc2cc(F)ccc2c1)c1ccncc1C(=O)N1CCCCC1	6800	13	
O=C(N[C@@H]1C[C@H]2CC[C@@H](C1)N2Cc1ccc2cc(F)ccc2c1)c1ccccc1C(=O)N1CCOCC1	8200	679	
O=C(N[C@@H]1C[C@H]2CC[C@@H](C1)N2Cc1ccc2cc(F)ccc2c1)c1cccnc1C(=O)N1CCCCC1	18300	98	

Further lines, with some results ahead:

IC50 (Cytochrome P450 2D6) [nM]	IC50 [1] [nM]	Structure (SMILES)	other results
2900	93	O=C(N[C@@H]1C[C@H]2CC[C@@H](C1)N2Cc1ccc2cc(F)ccc2c1)c1ccccc1-c1cncnc1	
	279	O=C(N[C@@H]1C[C@H]2CC[C@@H](C1)N2Cc1ccc2cc(F)ccc2c1)c1ccccc1N1CCCCC1	
1600	29	O=C(N[C@@H]1C[C@H]2CC[C@@H](C1)N2Cc1ccc2cc(F)ccc2c1)c1ccccc1-c1cccnc1	
	217	O=C(N[C@@H]1C[C@H]2CC[C@@H](C1)N2Cc1ccc2cc(F)ccc2c1)c1ccccc1-n1ccnc1	
	221	O=C(N[C@@H]1C[C@H]2CC[C@@H](C1)N2Cc1ccc2cc(F)ccc2c1)c1ccccc1-n1cccc1	
4000	57	O=C(N[C@@H]1C[C@H]2CC[C@@H](C1)N2Cc1ccc2cc(F)ccc2c1)c1ccccc1-c1ccccn1	
	613	O=C(N[C@@H]1C[C@H]2CC[C@@H](C1)N2Cc1ccc2cc(F)ccc2c1)c1ccccc1-c1ccncc1	
